What was measured:
[1] = target: T1, HIV-1 integrase (Human immunodeficiency virus type 1 group M subtype B, UniProt P04585); test: HIV integrase assay: strand transfer catalyzed by recombinant integrase; assay type: biochemical; details: inhibition of strand transfer activity
T1 construct: Strand Transfer Catalyzed by Recombinant Integrase
Protocol: Assays for the strand transfer activity of HIV-1 integrase were conducted in accordance with WO 02/30930 for recombinant integrase. […] For example, the compounds prepared in Examples 1 to 4 were tested in the integrase assay and found to have the IC50 values in Table B.
Further description on conducting the assay using preassembled complexes is found in Wolfe, A. L. et al., J. Virol. 1996, 70: 1424-1432, Hazuda et al., J. Virol. 1997, 71: 7005-7011; Hazuda et al., Drug Design and Discovery 1997, 15: 17-24; and Hazuda et al., Science 2000, 287: 646-650.

[2] = tested on: HIV; test: Inhibition of acute HIV infection, single cycle infectivity ("vertical") assay in HeLa P4-2 cells; assay type: cell-based; details: Human immunodeficiency virus 1, IIIB / NL43, HeLaP4-2
Protocol: An assay for measuring the inhibition of acute HIV infection with HeLa P4-2 cells in a single cycle infectivity assay (alternatively referred to as the “vertical” assay) was conducted in accordance with Joyce, J. G., et al., J. Biol. Chem. 2002, 277, 45811, Hazuda, D. J. et al., Science 2000, 287, 646, and Kimpton, J. et al, J. Virol. 1992, 66, 2232. Infectious virus was produced by transfecting 293T cells with HIV proviral DNA in which the integrase gene was derived from a IIIB isolate and the remainder of the HIV genome was derived from the NL4-3 isolate. […] For example, the compounds of Examples 1 to 4 were tested in this assay and found to have the IC50 values in Table C.

SMILES | IC50 [1] [nM] | IC50 [2] [nM]
C=CCc1c(O)c(=O)c2c(n1C)CCN(Cc1ccc(F)cc1)C2=O [Example 2, 2-Allyl-6-(4-fluorobenzyl)-3-hydroxy-1-methyl-7,8-dihydro-1,6-naphthyridine-4,5(1H,6H)-dione] | 100 | 5000
C=CCCn1c2c(c(=O)c(O)c1C(C)C=C)C(=O)N(Cc1ccc(F)cc1)CC2 (centres unmarked) [Example 3, 1-But-3-en-1-yl-6-(4-fluorobenzyl)-3-hydroxy-2-(1-methylprop-2-en-1-yl)-7,8-dihydro-1,6-napthyridine-4,5(1H,6H)-dione] | 100 | 1000
O=C1c2c(occ(O)c2=O)CCN1Cc1ccc(F)cc1 [Example 1, 6-(4-Fluorobenzyl)-3-hydroxy-7,8-dihydro-4H-pyrano[3,2-c]pyridine-4,5(6H)-dione] | 3200 | 43000
CC1CCCCn2c3c(c(=O)c(O)c21)C(=O)N(Cc1ccc(F)cc1)CC3 (centres unmarked) [Example 4, 3-(4-Fluorobenzyl)-6-hydroxy-7-methyl-2,3,8,9,10,11-hexahydroazepino[1,2-a]-1,6-napthyridine-4,5(1H,7H)-dione] | 120 | 5000

Reference: patent US20120220571A1, “HIV INTEGRASE INHIBITORS” (priority 2009, published 2012)
